Laboratory results published in ChEMBL document CHEMBL6134888, “Challenging the "Undruggable"─Targeting STAT3 but Identifying Potent TrkA-Targeted Inhibitors” (J Med Chem, 2025).
The source made the active and inactive calls. The rule behind the calls is not given here.

Key:
[1] = target: T1, High affinity nerve growth factor receptor (Homo sapiens, UniProt P04629); conditions: dose 100.0 nM
Description: Inhibition of TRKA (unknown origin) at 100 nM ScanElect kinase assay relative to control

[2] = system: KM12; assay: cells; conditions: Homo sapiens, KM12, 72 h
Description: Cytotoxicity against human KM12 cells assessed as inhibition of cell viability incubated for 72 hrs by resazurin based analysis

[3] = target: T1, High affinity nerve growth factor receptor; conditions: dose 100.0 nM; remark: listed apart in the source
Description: Inhibition of TRKA (unknown origin) at 100 nM relative to control

[4] = system: LS174T; assay: Cytotoxicity against human LS174T cells assessed as effect on cell viability incubated for 72 hrs by resazurin based analysis
[5] = target: Proto-oncogene tyrosine-protein kinase Src (Homo sapiens, UniProt P12931); assay: Inhibition of SRC (unknown origin) by Z-LYTE Kinase assay
[6] = system: MDA-MB-231; assay: Cytotoxicity against human MDA-MB-231 cells assessed as effect on cell viability incubated for 72 hrs by resazurin based analysis; conditions: MDA-MB-231, 72 h
[7] = target: Tyrosine-protein kinase JAK2 (Homo sapiens, UniProt O60674); assay: Inhibition of JAK2 (unknown origin) by Z-LYTE Kinase assay
[8] = target: Signal transducer and activator of transcription 3 (Homo sapiens) (UniProt P40763); assay: Induction of thermal stabilization of recombinant STAT3 (127 to 668 residues)(unknown origin) incubated for 3 hrs by SYPRO orange dye based DSF analysis; conditions: dose 10-100 µM
[9] = target: Signal transducer and activator of transcription 3 (Homo sapiens) (UniProt P40763); assay: Induction of thermal stabilization of recombinant STAT3 (127 to 668 residues)(unknown origin) assessed as change in melting temperature incubated for 3 hrs by SYPRO orange dye based DSF analysis
[10] = target: T1, High affinity nerve growth factor receptor; conditions: dose 100.0 nM; remark: listed apart in the source
Description: Inhibition of TRKA (unknown origin) at 100 nM by Z-LYTE Kinase assay relative to control

[11] = target: T1, High affinity nerve growth factor receptor; conditions: dose 10.0 nM
Description: Inhibition of TRKA (unknown origin) at 10 nM by Z-LYTE Kinase assay relative to control

[12] = target: L-lactate dehydrogenase A chain (Homo sapiens, UniProt P00338); assay: Inhibition of LDHA (unknown origin)
[13] = target: Signal transducer and activator of transcription 3 (Homo sapiens) (UniProt P40763); assay: Induction of thermal stabilization of STAT3 (unknown origin) at 100 uM by thermal shift assay
[14] = target: Signal transducer and activator of transcription 3 (Homo sapiens) (UniProt P40763); assay: Induction of thermal stabilization of recombinant STAT3 (127 to 668 residues)(unknown origin) assessed as reduction in fluorescence intensity incubated for 3 hrs by SYPRO orange dye based DSF analysis; conditions: dose 100.0 µM
[15] = target: Signal transducer and activator of transcription 3 (Homo sapiens) (UniProt P40763); assay: Binding affinity to STAT3 (unknown origin) SH2 domain by FP assay
[16] = target: BDNF/NT-3 growth factors receptor (Homo sapiens, UniProt Q16620); assay: Binding affinity to TRKB (unknown origin) assessed as dissociation constant by KINOMEscan assay
[17] = target: Signal transducer and activator of transcription 3 (Homo sapiens) (UniProt P40763); assay: Inhibition of STAT3 in oncostatin M-stimulated human U3A cells at 20 uM pretreated with compound for 1 hr followed by oncostatin M induction and measured after 6 hrs by luciferase assay relative to control; format: cell-based

Sequence of Signal transducer and activator of transcription 3 (Homo sapiens) (P40763 whole entry, the tested form may be a part): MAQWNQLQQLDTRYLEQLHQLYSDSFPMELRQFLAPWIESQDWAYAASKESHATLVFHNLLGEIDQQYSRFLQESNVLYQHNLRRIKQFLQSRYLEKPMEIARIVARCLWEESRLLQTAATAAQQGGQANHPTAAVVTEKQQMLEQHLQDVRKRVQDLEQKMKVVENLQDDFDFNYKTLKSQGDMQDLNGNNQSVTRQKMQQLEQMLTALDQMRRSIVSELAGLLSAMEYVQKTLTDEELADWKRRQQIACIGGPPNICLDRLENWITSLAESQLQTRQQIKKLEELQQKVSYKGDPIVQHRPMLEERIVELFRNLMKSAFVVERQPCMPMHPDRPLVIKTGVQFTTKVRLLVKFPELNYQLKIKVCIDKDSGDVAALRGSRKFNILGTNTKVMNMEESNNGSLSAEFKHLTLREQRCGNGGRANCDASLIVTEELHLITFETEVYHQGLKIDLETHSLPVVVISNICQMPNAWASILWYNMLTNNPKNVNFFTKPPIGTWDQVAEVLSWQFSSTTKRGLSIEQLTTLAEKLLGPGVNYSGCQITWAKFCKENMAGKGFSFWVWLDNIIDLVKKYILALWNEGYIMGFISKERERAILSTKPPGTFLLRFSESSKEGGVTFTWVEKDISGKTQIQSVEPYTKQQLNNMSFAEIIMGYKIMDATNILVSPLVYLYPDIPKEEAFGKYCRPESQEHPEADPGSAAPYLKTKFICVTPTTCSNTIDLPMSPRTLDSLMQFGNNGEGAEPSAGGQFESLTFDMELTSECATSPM
T1 sequence (P04629 33-796 limits assumed): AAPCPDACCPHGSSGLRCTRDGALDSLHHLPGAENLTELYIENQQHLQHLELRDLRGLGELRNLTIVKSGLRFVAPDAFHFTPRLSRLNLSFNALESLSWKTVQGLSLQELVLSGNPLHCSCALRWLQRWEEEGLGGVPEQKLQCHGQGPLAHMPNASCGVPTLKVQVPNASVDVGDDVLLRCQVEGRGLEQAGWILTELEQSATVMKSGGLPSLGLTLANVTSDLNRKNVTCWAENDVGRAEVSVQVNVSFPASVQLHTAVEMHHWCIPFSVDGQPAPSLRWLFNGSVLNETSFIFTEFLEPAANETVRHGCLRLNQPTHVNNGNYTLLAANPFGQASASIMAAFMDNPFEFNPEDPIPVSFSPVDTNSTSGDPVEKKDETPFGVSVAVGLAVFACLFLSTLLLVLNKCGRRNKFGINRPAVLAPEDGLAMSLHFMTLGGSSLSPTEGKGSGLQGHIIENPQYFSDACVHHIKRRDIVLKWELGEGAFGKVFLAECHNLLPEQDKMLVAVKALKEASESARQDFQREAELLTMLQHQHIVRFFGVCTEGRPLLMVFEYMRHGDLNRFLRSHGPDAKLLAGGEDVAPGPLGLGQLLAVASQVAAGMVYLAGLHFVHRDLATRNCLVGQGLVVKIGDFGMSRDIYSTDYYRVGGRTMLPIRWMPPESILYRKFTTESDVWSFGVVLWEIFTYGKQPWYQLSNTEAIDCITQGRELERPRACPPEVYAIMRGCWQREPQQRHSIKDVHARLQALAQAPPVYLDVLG
Sequence of Proto-oncogene tyrosine-protein kinase Src (P12931 2-536 limits assumed): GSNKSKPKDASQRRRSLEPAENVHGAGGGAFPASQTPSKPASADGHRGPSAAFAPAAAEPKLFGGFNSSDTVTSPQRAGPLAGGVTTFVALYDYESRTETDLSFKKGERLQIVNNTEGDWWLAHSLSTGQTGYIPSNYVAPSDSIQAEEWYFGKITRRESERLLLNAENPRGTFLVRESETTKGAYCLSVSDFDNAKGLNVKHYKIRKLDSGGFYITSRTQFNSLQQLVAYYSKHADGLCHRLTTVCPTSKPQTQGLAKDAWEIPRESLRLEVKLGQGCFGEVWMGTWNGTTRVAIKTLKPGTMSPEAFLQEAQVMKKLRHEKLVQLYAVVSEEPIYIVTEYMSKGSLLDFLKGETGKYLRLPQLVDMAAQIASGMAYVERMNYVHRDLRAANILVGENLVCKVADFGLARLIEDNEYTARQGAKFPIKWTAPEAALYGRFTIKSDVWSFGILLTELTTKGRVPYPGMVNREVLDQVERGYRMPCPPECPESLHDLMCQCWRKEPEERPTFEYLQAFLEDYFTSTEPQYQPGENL
Sequence of Tyrosine-protein kinase JAK2 (O60674 whole entry, the tested form may be a part): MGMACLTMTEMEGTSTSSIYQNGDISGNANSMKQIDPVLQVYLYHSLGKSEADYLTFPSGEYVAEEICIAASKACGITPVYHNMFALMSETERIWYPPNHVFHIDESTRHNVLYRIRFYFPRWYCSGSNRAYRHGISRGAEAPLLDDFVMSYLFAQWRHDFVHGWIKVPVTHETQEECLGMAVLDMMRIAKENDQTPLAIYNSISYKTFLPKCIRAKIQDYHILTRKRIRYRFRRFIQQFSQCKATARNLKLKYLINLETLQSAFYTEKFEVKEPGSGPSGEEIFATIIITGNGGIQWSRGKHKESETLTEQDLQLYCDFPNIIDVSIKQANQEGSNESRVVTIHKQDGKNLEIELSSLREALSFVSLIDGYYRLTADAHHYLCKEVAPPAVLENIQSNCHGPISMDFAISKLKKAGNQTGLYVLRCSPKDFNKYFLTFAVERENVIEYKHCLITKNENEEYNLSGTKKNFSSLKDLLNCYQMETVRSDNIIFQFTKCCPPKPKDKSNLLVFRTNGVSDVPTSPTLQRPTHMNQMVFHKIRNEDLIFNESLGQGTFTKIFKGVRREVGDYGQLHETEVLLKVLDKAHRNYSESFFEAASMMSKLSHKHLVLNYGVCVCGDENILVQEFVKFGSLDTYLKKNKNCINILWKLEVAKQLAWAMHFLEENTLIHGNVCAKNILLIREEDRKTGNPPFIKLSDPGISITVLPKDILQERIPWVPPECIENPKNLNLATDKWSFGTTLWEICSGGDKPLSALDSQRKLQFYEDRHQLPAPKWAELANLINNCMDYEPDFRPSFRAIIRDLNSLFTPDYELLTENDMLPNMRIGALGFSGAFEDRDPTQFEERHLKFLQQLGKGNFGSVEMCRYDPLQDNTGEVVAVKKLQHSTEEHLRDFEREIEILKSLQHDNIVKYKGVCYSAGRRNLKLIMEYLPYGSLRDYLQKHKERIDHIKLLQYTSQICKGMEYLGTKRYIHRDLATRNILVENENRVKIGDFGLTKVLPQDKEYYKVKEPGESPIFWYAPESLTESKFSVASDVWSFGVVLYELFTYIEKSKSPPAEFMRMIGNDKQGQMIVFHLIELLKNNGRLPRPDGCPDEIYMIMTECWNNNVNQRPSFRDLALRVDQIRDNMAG
Sequence of BDNF/NT-3 growth factors receptor (Q16620 whole entry): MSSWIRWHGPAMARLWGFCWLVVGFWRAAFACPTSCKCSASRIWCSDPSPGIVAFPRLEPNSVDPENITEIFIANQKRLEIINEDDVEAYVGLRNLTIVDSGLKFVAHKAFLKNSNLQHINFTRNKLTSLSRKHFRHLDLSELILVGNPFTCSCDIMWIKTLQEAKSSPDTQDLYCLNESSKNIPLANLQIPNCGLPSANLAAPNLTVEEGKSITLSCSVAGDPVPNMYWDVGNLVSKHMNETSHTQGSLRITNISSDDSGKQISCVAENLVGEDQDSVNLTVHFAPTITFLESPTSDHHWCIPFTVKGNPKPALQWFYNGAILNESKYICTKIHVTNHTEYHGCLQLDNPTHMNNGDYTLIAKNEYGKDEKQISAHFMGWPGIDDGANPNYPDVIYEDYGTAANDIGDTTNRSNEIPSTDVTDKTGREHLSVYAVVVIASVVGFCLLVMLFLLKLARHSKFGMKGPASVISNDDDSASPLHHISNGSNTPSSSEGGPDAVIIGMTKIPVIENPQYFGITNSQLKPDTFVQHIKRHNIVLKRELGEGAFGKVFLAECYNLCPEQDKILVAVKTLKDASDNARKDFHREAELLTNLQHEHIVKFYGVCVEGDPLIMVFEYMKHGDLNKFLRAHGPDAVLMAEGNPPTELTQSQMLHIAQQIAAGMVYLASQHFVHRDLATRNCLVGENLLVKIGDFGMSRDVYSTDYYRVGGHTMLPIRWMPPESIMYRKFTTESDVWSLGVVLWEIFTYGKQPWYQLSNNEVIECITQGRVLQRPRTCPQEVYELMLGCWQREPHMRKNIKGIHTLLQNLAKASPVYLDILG

Row | SMILES | inhibition [1] | inhibition [3] | also measured
1 | CN(C)c1cccc(-c2cnc(N)c(NCc3cccnc3)n2)c1 | 31% | 50% | IC50 [2]: 3700 nM
2 | C[C@@H](Nc1nc(-c2cccc(N(C)C)c2)cnc1N)c1ccccc1 |  |  | IC50 [2]: < 300 nM; IC50 [4]: > 10000 nM; IC50 [5]: 1110 nM; IC50 [6]: > 10000 nM; IC50 [7]: 530 nM
3 | CN(C)c1cccc(-c2cnc(N)c(NCc3cccc(-c4ccccc4)c3)n2)c1 | 5% | 42% | 
4 | CN(C)c1cccc(-c2cnc(N)c(NCc3cccc(C(F)(F)F)c3)n2)c1 | 4% | 28% | 
5 | CN(C)c1cccc(-c2cnc(N)c(NCc3ccccc3)n2)c1 | 21% | 79% | 
6 | COC(=O)c1cccc(CNc2nc(-c3cccc(N(C)C)c3)cnc2N)c1 | 6% | 48% | 
7 | C[C@@H](Nc1nc(-c2cc(C(F)(F)F)cc(C(F)(F)F)c2)cnc1N)c1ccccc1 |  |  | Activity [8]: Dose-dependent-effect; ΔTm [9]: 0.9 °C
8 | C[C@@H](Nc1nc(-c2cccc(C(=O)N(C)C)c2)cnc1N)c1ccccc1 |  |  | inhibition [10]: 74%; inhibition [11]: 34%
9 | C[C@H](Nc1nc(-c2cc(C(F)(F)F)cc(C(F)(F)F)c2)cnc1N)c1ccccc1 |  |  | Activity [8]: Dose-dependent-effect; ΔTm [9]: 0.9 °C
10 | C[C@H](Nc1nc(-c2cccc(C(=O)N(C)C)c2)cnc1N)c1ccccc1 |  |  | inhibition [10]: 0%; inhibition [11]: 10%
11 | Cc1ccc(CNc2nc(-c3cccc(N(C)C)c3)cnc2N)cc1C | 6% | 35% | 
12 | Cc1cccc(CNc2nc(-c3cccc(N(C)C)c3)cnc2N)c1 | 6% | 26% | 
13 | Nc1ncc(-c2cc(C(F)(F)F)cc(C(F)(F)F)c2)nc1NCc1ccco1 |  |  | Activity [8]: Dose-dependent-effect; ΔTm [9]: 0.9 °C
14 | CC(=O)Nc1cccc(-c2cnc(N)c(NC(C)c3ccccc3)n2)c1 (racemic) |  |  | Kd [16]: 60 nM; IC50 [5]: 1560 nM; IC50 [7]: 361 nM
15 | CC(Nc1nc(-c2cc(C(F)(F)F)cc(C(F)(F)F)c2)cnc1N)c1ccccc1 (racemic) | 4% | 10% | Activity [13]: Active; Activity [14]: Dose-dependent-effect; IC50 [2]: 5300 nM; inhibition [17]: 40%
16 | CC(Nc1nc(-c2cccc(N(C)C)c2)cnc1N)c1ccc(S(C)(=O)=O)cc1 (racemic) | 4% | 46% | 
17 | CC(Nc1nc(-c2cccc(N(C)C)c2)cnc1N)c1cccc(C(F)(F)F)c1 (racemic) | 11% | 44% | 
18 | CC(Nc1nc(-c2cccc3ccccc23)cnc1N)c1ccccc1 (racemic) | 14% |  | 
19 | CN(C)c1cccc(-c2cnc(N)c(NC(c3ccccc3)C(C)(C)C)n2)c1 (racemic) | 11% | 58% | 
20 | COc1ccc(C(C)Nc2nc(-c3cccc(N(C)C)c3)cnc2N)cc1 (racemic) | 7% | 17% | 
21 | COc1cccc(C(C)Nc2nc(-c3cccc(N(C)C)c3)cnc2N)c1 (racemic) | 41% | 66% | 
22 | Cc1ccc(C(C)Nc2nc(-c3cccc(N(C)C)c3)cnc2N)cc1 (racemic) | 10% | 11% | 
23 | O=C(Nc1cnn2ccc(N3CCC[C@@H]3c3cc(F)ccc3F)nc12)N1CC[C@H](O)C1 [LAROTRECTINIB] |  |  | IC50 [2]: 3.8 nM; IC50 [4]: > 10000 nM; IC50 [6]: > 10000 nM

Continued, in another order:

Row | inhibition [1] | inhibition [3] | SMILES | also measured
24 | 28% | 55% | COC(=O)c1cccc(-c2cnc(N)c(NC(C)c3ccccc3)n2)c1 (racemic) | IC50 [12]: 4000 nM; Activity [13]: Active; Activity [14]: Dose-dependent-effect; Activity [15]: Active
25 | 41% | 67% | CC(Nc1nc(-c2cccc(C(=O)N(C)C)c2)cnc1N)c1ccccc1 (racemic) | IC50 [2]: < 300 nM
26 | 2% | 21% | CC(C)Oc1cccc(-c2cnc(N)c(NC(C)c3ccccc3)n2)c1 (racemic) | Activity [13]: Active; Activity [14]: Dose-dependent-effect; Activity [15]: Active
27 | 0% |  | CC(Nc1nc(-c2cc(Cl)cc(Cl)c2)cnc1N)c1ccccc1 (racemic) | Activity [13]: Active; Activity [14]: Dose-dependent-effect; Activity [15]: Active
28 | 0% |  | CC(Nc1nc(-c2ccc(-c3ccccc3)cc2)cnc1N)c1ccccc1 (racemic) | 
29 | 4% |  | CC(Nc1nc(-c2ccc(F)cc2)cnc1N)c1ccccc1 (racemic) | Activity [13]: Active; Activity [14]: Dose-dependent-effect; Activity [15]: Active
30 | 23% | 38% | CC(Nc1nc(-c2ccc(NS(C)(=O)=O)cc2)cnc1N)c1ccccc1 (racemic) | 
31 | 14% |  | CC(Nc1nc(-c2ccc3c(c2)OCO3)cnc1N)c1ccccc1 (racemic) | 
32 | 3% |  | CC(Nc1nc(-c2cccc(F)c2)cnc1N)c1ccccc1 (racemic) | Activity [13]: Active; Activity [14]: Dose-dependent-effect; Activity [15]: Active
33 | 0% |  | CC(Nc1nc(-c2cccc(O)c2)cnc1N)c1ccccc1 (racemic) | 
34 | 28% | 55% | CC(Nc1nc(-c2cccc([N+](=O)[O-])c2)cnc1N)c1ccccc1 (racemic) | Activity [13]: Active; Activity [14]: Dose-dependent-effect; Activity [15]: Active
35 | 2% | 38% | CC(Nc1nc(-c2ccccc2)cnc1N)c1ccccc1 (racemic) | 
36 | 24% | 73% | CCC(Nc1nc(-c2cccc(N(C)C)c2)cnc1N)c1ccccc1 (racemic) | 
37 | 36% |  | COC(=O)c1ccc(-c2cnc(N)c(NC(C)c3ccccc3)n2)cc1 (racemic) | 
38 | 0% |  | COc1cccc(OC)c1-c1cnc(N)c(NC(C)c2ccccc2)n1 (racemic) | Activity [13]: Active; Activity [14]: Dose-dependent-effect; Activity [15]: Active
39 | 2% |  | Cc1cc(C)cc(-c2cnc(N)c(NC(C)c3ccccc3)n2)c1 (racemic) | 
